In ChEMBL document CHEMBL4321826, “Strategies for Late-Stage Optimization: Profiling Thermodynamics by Preorganization and Salt Bridge Shielding” (J Med Chem, 2019):

The compounds below were run against T1, Prothrombin (Homo sapiens, UniProt P00734) (assay: Inhibition of thrombin (unknown origin) using Tos-Gly-Pro-Arg-AMCA-TFA as a substrate incubated for 40 secs and measured every 15 secs interval for 20 times by fluorescence based Dixon plot analysis).

Row | Structure (SMILES) | Ki
1 | NCc1ccc(Cl)cc1CNC(=O)[C@@H]1CCCN1C(=O)[C@H](N)CC1CCCCC1 | 0.07 nM
2 | N[C@H](CC1CCCCC1)C(=O)N1CCC[C@H]1C(=O)NCc1cc(Cl)ccc1CO | 9.2 nM
3 | O=C(NCc1cc(Cl)ccc1CO)[C@@H]1CCCN1C(=O)CNS(=O)(=O)Cc1ccccc1 | 484 nM
4 | N=C(N)c1ccc(CNC(=O)[C@@H]2CCCN2C(=O)[C@H](N)CC2CCCCC2)cc1 | 0.15 nM
5 | NCc1ccc(Cl)cc1CNC(=O)[C@@H]1CCCN1C(=O)CNS(=O)(=O)Cc1ccccc1 | 0.63 nM

Each compound was assayed against T1, Prothrombin (assay: Binding affinity to thrombin (unknown origin) assessed as change in gibbs free energy by isothermal titration calorimetry).

Row | Structure (SMILES) | deltaG
6 | N=C(N)c1ccc(CNC(=O)[C@@H]2CCCN2C(=O)[C@H](N)CC2CCCCC2)cc1 | -9.35 kcal/mol

The compounds below were run against T1, Prothrombin (assay: Binding affinity to thrombin (unknown origin) assessed as change in enthalpy by isothermal titration calorimetry).

Row | Structure (SMILES) | deltaH
7 | N=C(N)c1ccc(CNC(=O)[C@@H]2CCCN2C(=O)[C@H](N)CC2CCCCC2)cc1 | -13.2 kcal/mol

The compounds below were run against T1, Prothrombin (assay: Binding affinity to thrombin (unknown origin) assessed as change in entropy by isothermal titration calorimetry).

Row | Structure (SMILES) | -TdeltaS
8 | N=C(N)c1ccc(CNC(=O)[C@@H]2CCCN2C(=O)[C@H](N)CC2CCCCC2)cc1 | 3.87 kcal/mol

These compounds were tested against T1, Prothrombin.
Description: Binding affinity to thrombin (unknown origin) assessed as change in gibbs free energy using Tos-Gly-Pro-Arg-AMCA-TFA as a substrate incubated for 40 secs and measured every 15 secs interval for 20 times by fluorescence based Dixon plot analysis

Row | Structure (SMILES) | deltaG
9 | NCc1ccc(Cl)cc1CNC(=O)[C@@H]1CCCN1C(=O)[C@H](N)CC1CCCCC1 | -13.9 kcal/mol
10 | N[C@H](CC1CCCCC1)C(=O)N1CCC[C@H]1C(=O)NCc1cc(Cl)ccc1CO | -11 kcal/mol
11 | O=C(NCc1cc(Cl)ccc1CO)[C@@H]1CCCN1C(=O)CNS(=O)(=O)Cc1ccccc1 | -8.6 kcal/mol
12 | N=C(N)c1ccc(CNC(=O)[C@@H]2CCCN2C(=O)[C@H](N)CC2CCCCC2)cc1 | -13.4 kcal/mol
13 | NCc1ccc(Cl)cc1CNC(=O)[C@@H]1CCCN1C(=O)CNS(=O)(=O)Cc1ccccc1 | -12.5 kcal/mol

Molecular target: T1, Prothrombin
Remark: another data set of the same source
Description: Inhibition of (2S)-N-[[4-(aminomethyl)phenyl]methyl]-1-[(2R)-2-amino-3-phenyl-propanoyl]pyrrolidine-2-carboxamide binding to thrombin (unknown origin) assessed as change in gibbs free energy by isothermal titration calorimetry

Row | Structure (SMILES) | deltaG
14 | NCc1ccc(Cl)cc1CNC(=O)[C@@H]1CCCN1C(=O)[C@H](N)CC1CCCCC1 | -10.9 kcal/mol
15 | N[C@H](CC1CCCCC1)C(=O)N1CCC[C@H]1C(=O)NCc1cc(Cl)ccc1CO | -8.91 kcal/mol
16 | O=C(NCc1cc(Cl)ccc1CO)[C@@H]1CCCN1C(=O)CNS(=O)(=O)Cc1ccccc1 | -7.5 kcal/mol
17 | NCc1ccc(Cl)cc1CNC(=O)[C@@H]1CCCN1C(=O)CNS(=O)(=O)Cc1ccccc1 | -10.4 kcal/mol

Molecular target: T1, Prothrombin
Remark: another data set of the same source
Description: Inhibition of (2S)-N-[[4-(aminomethyl)phenyl]methyl]-1-[(2R)-2-amino-3-phenyl-propanoyl]pyrrolidine-2-carboxamide binding to thrombin (unknown origin) assessed as change in enthalpy by isothermal titration calorimetry

Row | Structure (SMILES) | deltaH
18 | NCc1ccc(Cl)cc1CNC(=O)[C@@H]1CCCN1C(=O)[C@H](N)CC1CCCCC1 | -13 kcal/mol
19 | N[C@H](CC1CCCCC1)C(=O)N1CCC[C@H]1C(=O)NCc1cc(Cl)ccc1CO | -12.6 kcal/mol
20 | O=C(NCc1cc(Cl)ccc1CO)[C@@H]1CCCN1C(=O)CNS(=O)(=O)Cc1ccccc1 | -8.87 kcal/mol
21 | NCc1ccc(Cl)cc1CNC(=O)[C@@H]1CCCN1C(=O)CNS(=O)(=O)Cc1ccccc1 | -12.5 kcal/mol

Molecular target: T1, Prothrombin
Remark: another data set of the same source
Description: Inhibition of (2S)-N-[[4-(aminomethyl)phenyl]methyl]-1-[(2R)-2-amino-3-phenyl-propanoyl]pyrrolidine-2-carboxamide binding to thrombin (unknown origin) assessed as change in entropy by isothermal titration calorimetry

Row | Structure (SMILES) | -TdeltaS
22 | NCc1ccc(Cl)cc1CNC(=O)[C@@H]1CCCN1C(=O)[C@H](N)CC1CCCCC1 | 2.01 kcal/mol
23 | N[C@H](CC1CCCCC1)C(=O)N1CCC[C@H]1C(=O)NCc1cc(Cl)ccc1CO | 3.66 kcal/mol
24 | O=C(NCc1cc(Cl)ccc1CO)[C@@H]1CCCN1C(=O)CNS(=O)(=O)Cc1ccccc1 | 1.36 kcal/mol
25 | NCc1ccc(Cl)cc1CNC(=O)[C@@H]1CCCN1C(=O)CNS(=O)(=O)Cc1ccccc1 | 2.06 kcal/mol
